From the kinase profiling compilation of Christmann-Franck et al. (2016)
“And” between values parts separate entries of the source, which are not always exact repeats. Equal entries are not always repeated.

Tests used:
Conditions in all cases: compound 10.0 µM
CAMK2B (human) = CAMK2B (human) (UniProt Q13554)
TBK1 (human) = TBK1 (human) (UniProt Q9UHD2)
PKN2 (human) = PKN2 (human) (UniProt Q16513)
GSG2 (human) = GSG2 (human) (UniProt Q8TF76)
PASK (human) = PASK (human) (UniProt Q96RG2)
MATK (human) = MATK (human) (UniProt P42679)
NUAK1 (human) = NUAK1 (human) (UniProt O60285)
PTK2 (human) = PTK2 (human) (UniProt Q05397)
PRKCE (human) = PRKCE (human) (UniProt Q02156)
PRKX (human) = PRKX (human) (UniProt P51817)
BRSK2 (human) = BRSK2 (human) (UniProt Q8IWQ3)
PDGFRA (human) = PDGFRA (human) (UniProt P16234)
MERTK (human) = MERTK (human) (UniProt Q12866)
Sequence of MERTK (human) (Q12866 whole entry, looked up): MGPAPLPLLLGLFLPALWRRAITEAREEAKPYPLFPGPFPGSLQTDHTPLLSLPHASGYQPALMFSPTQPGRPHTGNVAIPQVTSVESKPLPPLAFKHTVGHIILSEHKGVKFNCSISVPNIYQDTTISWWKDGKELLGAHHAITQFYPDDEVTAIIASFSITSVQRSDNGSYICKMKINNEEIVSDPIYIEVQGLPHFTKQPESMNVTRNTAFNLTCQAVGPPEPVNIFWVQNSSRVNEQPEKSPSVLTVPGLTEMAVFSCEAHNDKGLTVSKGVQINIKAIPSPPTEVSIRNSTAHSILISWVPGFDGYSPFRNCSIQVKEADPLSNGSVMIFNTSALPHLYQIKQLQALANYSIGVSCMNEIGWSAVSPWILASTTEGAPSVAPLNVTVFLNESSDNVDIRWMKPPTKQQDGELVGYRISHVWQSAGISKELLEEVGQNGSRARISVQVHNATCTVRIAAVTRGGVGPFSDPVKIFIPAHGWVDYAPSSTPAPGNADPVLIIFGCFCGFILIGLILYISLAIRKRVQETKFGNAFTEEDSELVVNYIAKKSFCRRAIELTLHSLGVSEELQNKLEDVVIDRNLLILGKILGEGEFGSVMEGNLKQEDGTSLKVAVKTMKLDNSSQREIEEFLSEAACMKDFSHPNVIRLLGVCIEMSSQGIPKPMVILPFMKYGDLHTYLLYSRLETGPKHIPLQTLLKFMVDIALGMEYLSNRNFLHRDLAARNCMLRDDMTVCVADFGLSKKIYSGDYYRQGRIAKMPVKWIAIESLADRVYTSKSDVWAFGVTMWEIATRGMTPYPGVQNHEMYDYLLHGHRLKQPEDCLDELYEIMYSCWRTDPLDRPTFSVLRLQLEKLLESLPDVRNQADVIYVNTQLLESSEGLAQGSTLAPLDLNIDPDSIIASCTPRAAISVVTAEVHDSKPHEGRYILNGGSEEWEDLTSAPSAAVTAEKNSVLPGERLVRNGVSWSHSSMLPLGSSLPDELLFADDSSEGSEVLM

AXL (human) = AXL (human) (UniProt P30530)
ABL1 (human) = ABL1 (human) (UniProt P00519)
CLK3 (human) = CLK3 (human) (UniProt P49761)
MYLK (human) = MYLK (human) (UniProt Q15746)
HIPK4 (human) = HIPK4 (human) (UniProt Q8NE63)
PRKG1 (human) = PRKG1 (human) (UniProt Q13976)
Sequence of PRKG1 (human) (Q13976 whole entry, looked up): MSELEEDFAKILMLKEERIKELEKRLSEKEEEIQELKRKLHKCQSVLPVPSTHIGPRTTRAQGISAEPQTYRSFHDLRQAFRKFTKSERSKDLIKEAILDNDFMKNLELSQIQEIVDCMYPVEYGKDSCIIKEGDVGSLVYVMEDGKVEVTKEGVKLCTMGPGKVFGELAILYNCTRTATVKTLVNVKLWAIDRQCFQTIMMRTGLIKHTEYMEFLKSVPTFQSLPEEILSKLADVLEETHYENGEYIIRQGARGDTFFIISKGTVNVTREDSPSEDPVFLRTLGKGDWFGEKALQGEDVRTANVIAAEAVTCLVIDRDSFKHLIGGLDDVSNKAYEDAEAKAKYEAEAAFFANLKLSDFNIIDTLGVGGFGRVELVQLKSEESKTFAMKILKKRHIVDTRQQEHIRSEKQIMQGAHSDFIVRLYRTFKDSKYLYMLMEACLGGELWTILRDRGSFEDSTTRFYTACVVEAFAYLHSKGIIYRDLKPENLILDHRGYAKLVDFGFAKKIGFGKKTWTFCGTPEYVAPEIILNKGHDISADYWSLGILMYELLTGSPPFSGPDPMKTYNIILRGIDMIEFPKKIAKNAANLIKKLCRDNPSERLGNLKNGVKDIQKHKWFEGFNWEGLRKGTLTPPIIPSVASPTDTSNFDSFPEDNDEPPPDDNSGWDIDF

EPHB2 (human) = EPHB2 (human) (UniProt P29323)
MAPK3 (human) = MAPK3 (human) (UniProt P27361)
EPHA6 (human) = EPHA6 (human) (UniProt Q9UF33)
Sequence of EPHA6 (human) (Q9UF33 whole entry, looked up): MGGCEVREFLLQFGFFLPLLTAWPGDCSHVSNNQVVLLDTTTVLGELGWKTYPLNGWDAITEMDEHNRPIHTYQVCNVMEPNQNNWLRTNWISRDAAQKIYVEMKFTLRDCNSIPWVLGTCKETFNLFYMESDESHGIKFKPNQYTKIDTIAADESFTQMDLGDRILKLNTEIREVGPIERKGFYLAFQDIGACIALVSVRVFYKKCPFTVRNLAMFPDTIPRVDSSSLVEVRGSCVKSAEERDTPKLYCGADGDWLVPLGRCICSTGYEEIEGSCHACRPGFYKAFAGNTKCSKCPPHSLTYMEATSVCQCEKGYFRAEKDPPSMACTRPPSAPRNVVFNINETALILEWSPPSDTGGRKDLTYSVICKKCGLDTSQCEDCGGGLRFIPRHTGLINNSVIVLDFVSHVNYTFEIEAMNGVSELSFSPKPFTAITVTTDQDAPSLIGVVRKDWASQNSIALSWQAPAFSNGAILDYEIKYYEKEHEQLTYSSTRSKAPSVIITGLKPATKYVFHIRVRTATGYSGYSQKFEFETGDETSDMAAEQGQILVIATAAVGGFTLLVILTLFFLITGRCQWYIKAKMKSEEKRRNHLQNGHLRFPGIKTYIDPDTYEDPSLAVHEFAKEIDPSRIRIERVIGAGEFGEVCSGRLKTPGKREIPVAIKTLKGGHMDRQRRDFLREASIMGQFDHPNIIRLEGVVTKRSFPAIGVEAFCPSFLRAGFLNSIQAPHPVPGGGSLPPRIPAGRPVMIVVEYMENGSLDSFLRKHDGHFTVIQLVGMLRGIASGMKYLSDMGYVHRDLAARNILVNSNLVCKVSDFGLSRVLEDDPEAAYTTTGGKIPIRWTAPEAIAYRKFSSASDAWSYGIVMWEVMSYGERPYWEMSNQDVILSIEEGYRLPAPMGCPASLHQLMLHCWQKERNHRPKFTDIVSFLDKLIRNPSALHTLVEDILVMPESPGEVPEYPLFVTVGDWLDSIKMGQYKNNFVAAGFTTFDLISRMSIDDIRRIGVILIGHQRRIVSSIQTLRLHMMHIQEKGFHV

PTK6 (human) = PTK6 (human) (UniProt Q13882)
CDK5 CDK5R1 p35 (human) = CDK5 CDK5R1 p35 (human) (UniProt Q00535+Q15078)
CLK2 (human) = CLK2 (human) (UniProt P49760)
SRC (human) = SRC (human) (UniProt P12931)
STK3 (human) = STK3 (human) (UniProt Q13188)
MELK (human) = MELK (human) (UniProt Q14680)
CDC42BPB (human) = CDC42BPB (human) (UniProt Q9Y5S2)
PAK7 (human) = PAK7 (human) (UniProt Q9P286)
TAOK3 (human) = TAOK3 (human) (UniProt Q9H2K8)
PRKACA (human) = PRKACA (human) (UniProt P17612)
AURKA (human) = AURKA (human) (UniProt O14965)
CDK9 CCNK (human) = CDK9 CCNK (human) (UniProt P50750+O75909)
PBK (human) = PBK (human) (UniProt Q96KB5)
GRK4 (human) = GRK4 (human) (UniProt P32298)
MAP4K5 (human) = MAP4K5 (human) (UniProt Q9Y4K4)
PRKD1 (human) = PRKD1 (human) (UniProt Q15139)
PRKCD (human) = PRKCD (human) (UniProt Q05655)
ULK3 (human) = ULK3 (human) (UniProt Q6PHR2)
HCK (human) = HCK (human) (UniProt P08631)
MST1R (human) = MST1R (human) (UniProt Q04912)
MAP3K14 (human) = MAP3K14 (human) (UniProt Q99558)
STK33 (human) = STK33 (human) (UniProt Q9BYT3)

Sequence of GSG2 (human) (Q8TF76 whole entry, looked up): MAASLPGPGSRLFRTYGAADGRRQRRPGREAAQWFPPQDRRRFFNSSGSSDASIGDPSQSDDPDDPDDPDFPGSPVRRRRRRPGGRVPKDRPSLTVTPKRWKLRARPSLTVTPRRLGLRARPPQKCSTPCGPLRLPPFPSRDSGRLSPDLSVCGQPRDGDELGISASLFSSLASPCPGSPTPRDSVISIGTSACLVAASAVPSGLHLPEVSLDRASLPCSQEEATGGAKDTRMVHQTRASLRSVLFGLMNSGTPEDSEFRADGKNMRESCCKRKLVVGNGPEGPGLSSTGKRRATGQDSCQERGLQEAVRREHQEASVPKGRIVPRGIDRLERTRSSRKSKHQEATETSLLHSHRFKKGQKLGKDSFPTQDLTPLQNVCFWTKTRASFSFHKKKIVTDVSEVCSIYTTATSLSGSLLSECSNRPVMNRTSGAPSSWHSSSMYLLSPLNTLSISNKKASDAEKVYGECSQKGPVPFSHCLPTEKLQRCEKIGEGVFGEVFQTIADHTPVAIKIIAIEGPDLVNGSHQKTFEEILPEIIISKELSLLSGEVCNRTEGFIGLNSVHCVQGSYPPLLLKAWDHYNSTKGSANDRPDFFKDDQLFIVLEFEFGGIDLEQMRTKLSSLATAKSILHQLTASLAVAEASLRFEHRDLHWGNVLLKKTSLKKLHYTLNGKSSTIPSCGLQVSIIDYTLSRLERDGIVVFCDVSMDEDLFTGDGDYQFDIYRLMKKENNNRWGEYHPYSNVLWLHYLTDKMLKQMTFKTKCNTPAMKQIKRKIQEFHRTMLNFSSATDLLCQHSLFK
Sequence of PASK (human) (Q96RG2 whole entry, looked up): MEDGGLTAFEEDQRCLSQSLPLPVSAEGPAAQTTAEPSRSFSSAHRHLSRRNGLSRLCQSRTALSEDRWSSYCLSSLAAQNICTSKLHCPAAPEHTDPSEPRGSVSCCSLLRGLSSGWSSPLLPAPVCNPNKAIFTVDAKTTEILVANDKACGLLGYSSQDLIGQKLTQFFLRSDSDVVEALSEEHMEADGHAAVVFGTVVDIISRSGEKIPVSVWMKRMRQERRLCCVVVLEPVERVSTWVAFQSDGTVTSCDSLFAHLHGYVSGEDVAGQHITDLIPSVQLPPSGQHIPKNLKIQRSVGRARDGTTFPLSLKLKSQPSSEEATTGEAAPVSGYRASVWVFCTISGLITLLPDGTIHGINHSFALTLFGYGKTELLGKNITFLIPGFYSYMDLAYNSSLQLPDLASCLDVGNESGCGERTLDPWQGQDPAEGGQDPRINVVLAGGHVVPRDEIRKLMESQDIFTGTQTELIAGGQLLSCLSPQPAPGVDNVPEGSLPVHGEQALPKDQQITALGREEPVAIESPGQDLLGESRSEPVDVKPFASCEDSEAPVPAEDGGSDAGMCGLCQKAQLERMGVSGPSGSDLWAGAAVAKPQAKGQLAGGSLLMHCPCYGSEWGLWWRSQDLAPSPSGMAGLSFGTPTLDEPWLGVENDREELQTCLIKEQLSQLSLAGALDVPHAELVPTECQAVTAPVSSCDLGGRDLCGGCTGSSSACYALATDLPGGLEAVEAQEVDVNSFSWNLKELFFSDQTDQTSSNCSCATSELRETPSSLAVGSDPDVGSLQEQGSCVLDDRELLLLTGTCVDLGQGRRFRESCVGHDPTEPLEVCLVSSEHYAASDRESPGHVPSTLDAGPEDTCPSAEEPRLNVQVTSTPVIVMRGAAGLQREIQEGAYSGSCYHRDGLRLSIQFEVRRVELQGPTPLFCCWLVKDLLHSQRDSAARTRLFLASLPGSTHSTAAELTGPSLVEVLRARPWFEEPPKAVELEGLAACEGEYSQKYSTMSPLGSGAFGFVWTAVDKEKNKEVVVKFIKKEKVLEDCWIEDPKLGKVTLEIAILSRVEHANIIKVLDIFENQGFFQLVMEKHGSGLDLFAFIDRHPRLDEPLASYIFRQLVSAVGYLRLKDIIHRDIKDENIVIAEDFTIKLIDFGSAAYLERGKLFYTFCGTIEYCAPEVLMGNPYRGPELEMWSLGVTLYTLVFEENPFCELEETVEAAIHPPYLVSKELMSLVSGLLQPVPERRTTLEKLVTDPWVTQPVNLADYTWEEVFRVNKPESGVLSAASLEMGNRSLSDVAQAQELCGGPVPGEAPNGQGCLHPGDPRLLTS

- residual activity (CAMK2B (human)): 95.5%
- residual activity (TBK1 (human)): 105%
- residual activity (PKN2 (human)): 89.5%
- residual activity (GSG2 (human)): 98%
- residual activity (PASK (human)): 90.5%
- residual activity (MATK (human)): 95.5%
- residual activity (NUAK1 (human)): 102%
- residual activity (PTK2 (human)): 91.5%
- residual activity (PRKCE (human)): 99.5%
- residual activity (PRKX (human)): 80.5%
- residual activity (BRSK2 (human)): 103%
- residual activity (PDGFRA (human)): 99.5%
- residual activity (MERTK (human)): 98.5%
- residual activity (AXL (human)): 103%
- residual activity (ABL1 (human)): 84%
- residual activity (CLK3 (human)): 86%
- residual activity (MYLK (human)): 96%
- residual activity (HIPK4 (human)): 88%
- residual activity (PRKG1 (human)): 95% and 90.5%
- residual activity (EPHB2 (human)): 95.5%
- residual activity (MAPK3 (human)): 99%
- residual activity (EPHA6 (human)): 90%
- residual activity (PTK6 (human)): 93%
- residual activity (CDK5 CDK5R1 p35 (human)): 103%
- residual activity (CLK2 (human)): 89.5%
- residual activity (SRC (human)): 83.5%
- residual activity (STK3 (human)): 90%
- residual activity (MELK (human)): 79.5%
- residual activity (CDC42BPB (human)): 101%
- residual activity (PAK7 (human)): 102%
- residual activity (TAOK3 (human)): 101%
- residual activity (PRKACA (human)): 102%
- residual activity (AURKA (human)): 88%
- residual activity (CDK9 CCNK (human)): 96.5%
- residual activity (PBK (human)): 94%
- residual activity (GRK4 (human)): 98%
- residual activity (MAP4K5 (human)): 102%
- residual activity (PRKD1 (human)): 100%
- residual activity (PRKCD (human)): 102%
- residual activity (ULK3 (human)): 104%
- residual activity (HCK (human)): 101%
- residual activity (MST1R (human)): 97%
- residual activity (MAP3K14 (human)): 99%
- residual activity (STK33 (human)): 94.5%
SMILES: CC[C@H](C)n1cc(C)c2c(C(=O)NCc3c(C)cc(C)[nH]c3=O)cc(-c3ccc(N4CCNCC4)nc3)cc21
